Here are results for 14 molecules from US5532263A, “Benzothiopyranoindazole antitumor agents” (priority 1995, dated 1996).

For series [1] the following is noted: tested as an antitumor agent (literature); cited from earlier work.
Series [2] concerns the target HeLa cell topo II (Homo sapiens, UniProt P11388). The experiment in a line: Topoisomerase II inhibition: promotion of covalent complex formation between pBR322 DNA and topo II (SDS/K+ precipitation). It is filed as biochemical. Conditions: read-out: topo II inhib EC50.
Series [3] has as its system P388 mouse leukemia cells. Nature of the series: In vitro cytotoxicity: clonogenic survival in soft agar. Type of series: cell-based. Conditions: read-out: in vitro cytox IC50. The method, then:
In Vitro Cytotoxicity This is measured by quantifying clonogenic survival in soft agar following a 1 hour transient exposure of P388 mouse leukemia cells to drug.

Series [4] deals with Pancreatic Ductal Adenocarcinoma #03 (Panc 03). The experiment in a line: Murine antitumor activity versus Pancreatic Ductal Adenocarcinoma #03. It is filed as in vivo. Particulars: versus Panc 03; for LTC (long term cures): mice with no palpable tumor after a minimum of 86 days/total number in treatment group; for % T/C (tumor growth inhibition): intravenous, T/C <42% considered significant. An excerpt:
(§1) Murine Antitumor Activaty Versus Pancreatic Ductal Adenocarcinoma #03.
(§2) This is tumor growth inhibition, where T is the medium tumor burden in the treatment group times 100 at evaluation and C is the medium tumor burden in the control group at evaluation.
(§3) This is the maximum tolerated total dose administered intravenously in mg/kg.
(§4) This means the long term cures, the number of mice in the treatment group with no palpable tumor evidents after a minimum of 86 days/total number in treatment group. […]

Test in series [5]: as above
It is filed as in vivo. Particulars: mouse, in vivo, iv; administered intravenously, total dose; mice, Panc 03 study; read-out: MTD (maximum tolerated total dose).
Source text: as §1, §2, §3, §4

For series [6], the system named is calf thymus DNA. Nature of the series: DNA intercalation: ethidium bromide displacement assay. Type of series: binding. Conditions: displacement of 50% of calf thymus DNA bound ethidium bromide; average of two determinations. An excerpt:
A known ethidium bromide displacement assay is used to determine intercalation potency.

The mark [7] stands for this setting: DNA precipitated equivalent to 50% of the maximum precipitated by m-AMSA.
Where [8] appears, read: P388, 1 hour transient exposure, 50% reduction of clonogenic survival in soft agar.
The mark [9] stands for this setting: footnote j: first dose administered 4 days after tumor implantation.
The mark [10] stands for this setting: footnote k: bell-shaped dose response curve noted when determining the EC50, relative to 50% of m-AMSA maximum.

Counter-ions that a name gives are not always drawn. Like-named read-outs stand apart in the source and are kept apart here. Where only a bound is given, the exact number is not on record here.

Sequence of HeLa cell topo II (P11388 whole entry): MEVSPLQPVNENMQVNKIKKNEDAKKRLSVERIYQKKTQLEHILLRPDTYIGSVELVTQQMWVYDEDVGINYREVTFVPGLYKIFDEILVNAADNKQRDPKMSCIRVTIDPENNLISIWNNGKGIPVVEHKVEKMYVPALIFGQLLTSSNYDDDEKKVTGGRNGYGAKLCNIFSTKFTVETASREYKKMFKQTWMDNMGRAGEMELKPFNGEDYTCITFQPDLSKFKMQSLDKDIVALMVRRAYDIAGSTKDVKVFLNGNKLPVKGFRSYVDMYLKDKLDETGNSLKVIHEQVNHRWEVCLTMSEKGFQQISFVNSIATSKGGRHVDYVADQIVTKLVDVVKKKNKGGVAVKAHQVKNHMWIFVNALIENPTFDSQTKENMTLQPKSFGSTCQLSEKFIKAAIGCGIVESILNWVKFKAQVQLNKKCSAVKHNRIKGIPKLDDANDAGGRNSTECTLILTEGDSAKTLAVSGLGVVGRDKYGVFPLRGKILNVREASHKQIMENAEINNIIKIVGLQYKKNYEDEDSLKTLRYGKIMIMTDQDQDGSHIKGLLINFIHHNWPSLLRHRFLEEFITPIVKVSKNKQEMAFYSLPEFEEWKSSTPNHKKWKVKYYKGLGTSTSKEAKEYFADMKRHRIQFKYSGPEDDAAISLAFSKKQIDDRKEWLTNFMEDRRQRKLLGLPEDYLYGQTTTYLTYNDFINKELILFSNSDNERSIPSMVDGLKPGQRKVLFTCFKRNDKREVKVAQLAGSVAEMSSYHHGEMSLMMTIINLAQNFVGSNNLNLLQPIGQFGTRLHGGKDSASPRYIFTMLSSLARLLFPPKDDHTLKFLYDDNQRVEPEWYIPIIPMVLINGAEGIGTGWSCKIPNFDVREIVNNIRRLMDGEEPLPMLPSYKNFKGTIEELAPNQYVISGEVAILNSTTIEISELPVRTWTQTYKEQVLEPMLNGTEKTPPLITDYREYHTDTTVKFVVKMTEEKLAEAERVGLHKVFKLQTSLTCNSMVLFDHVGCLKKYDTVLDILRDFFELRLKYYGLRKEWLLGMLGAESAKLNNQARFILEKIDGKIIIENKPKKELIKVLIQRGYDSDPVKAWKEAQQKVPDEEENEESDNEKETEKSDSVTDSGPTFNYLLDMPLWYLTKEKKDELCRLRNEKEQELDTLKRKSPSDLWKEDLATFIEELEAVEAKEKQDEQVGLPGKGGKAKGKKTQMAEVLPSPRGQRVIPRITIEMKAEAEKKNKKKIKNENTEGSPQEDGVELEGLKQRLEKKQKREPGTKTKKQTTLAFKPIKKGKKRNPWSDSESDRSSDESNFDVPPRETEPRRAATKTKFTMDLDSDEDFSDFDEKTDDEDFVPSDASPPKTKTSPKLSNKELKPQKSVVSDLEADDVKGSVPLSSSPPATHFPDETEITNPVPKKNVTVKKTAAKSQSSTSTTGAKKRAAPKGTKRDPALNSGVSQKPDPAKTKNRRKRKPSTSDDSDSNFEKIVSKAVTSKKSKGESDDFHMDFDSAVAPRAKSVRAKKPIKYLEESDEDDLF

For the molecule `Cc1ccc2[nH]nc3c2c1Sc1ccccc1-3` [5-methyl-2H-[1]benzothiopyrano[4,3,2-cd]indazole], in series [1], the antitumor activity entry was “inactive”.

On to `CCN(CC)CCn1nc2c3c(c(CNC=O)ccc31)Sc1ccccc1-2` [Ex 5], for which the EC50 is over 260 µM in series [2] (setting [7]) and 1.5 µM in series [6]. In series [3] (setting [8]), the IC50 worked out at 0.33 µM. For the same molecule, the “LTC (long term cures)” value in series [4] is listed as 0/5. The “% T/C (tumor growth inhibition)” value in series [4] was 0%. Besides, the MTD in series [5] amounted to 81 mg/kg.

For the molecule `CCN(CC)CCn1nc2c3c(c(CNC=O)ccc31)Sc1ccc(OC)cc1-2` [Ex 6], the EC50 in series [2] (setting [7]) was over 240 µM; in series [6] it was 1.9 µM. For the same molecule, the IC50 in series [3] (setting [8]) is 55 µM. In series [4], the “LTC (long term cures)” value is listed as 3/5. For the same molecule, in series [4], the “% T/C (tumor growth inhibition)” value is on record as 0%. The MTD in series [5] worked out at 231 mg/kg.

Consider `CCN(CC)CCn1nc2c3c(c(CN)ccc31)Sc1ccccc1-2` [Ex 8], for which the EC50 in series [2] (setting [7]) was over 250 µM; in series [6], 0.12 µM. For the same molecule, the IC50 in series [3] (setting [8]) was determined as 5.8 µM. Besides, the “% T/C (tumor growth inhibition)” value in series [4] (setting [9]) came to 25%. The “LTC (long term cures)” value in series [4] is 0/5. Besides, in series [5], the MTD was 72 mg/kg.

Take `CCN(CC)CCn1nc2c3c(c(CN)ccc31)Sc1ccc(OC)cc1-2` [Ex 9]: the EC50 in series [2] (setting [7]) is over 260 µM; in series [6], 0.13 µM. For the same molecule, the IC50 in series [3] (setting [8]) worked out at 13 µM. Also, the “% T/C (tumor growth inhibition)” value in series [4] (setting [9]) was 0%. Moreover, the “LTC (long term cures)” value in series [4] is reported as 3/4. For the same molecule, in series [5], the MTD was determined as 240 mg/kg.

For `CCN(CC)CCn1nc2c3c(c(CNC)ccc31)Sc1ccccc1-2` [Ex 10, N-methyl-2-[(2-(Diethylamino)ethyl]-2H-[1]-benzothiopyrano[4,3,2-cd]indazole-5-methanaminedihydrochloride hydrate], the EC50 was over 220 µM in series [2] (setting [7]) and 0.18 µM in series [6]. Moreover, the IC50 in series [3] (setting [8]) came to 16 µM. Moreover, the “LTC (long term cures)” value in series [4] was 1/5. The “% T/C (tumor growth inhibition)” value in series [4] was 0%. In series [5], the MTD was determined as 326 mg/kg.

Regarding `CCN(CC)CCn1nc2c3c(c(CNS(C)(=O)=O)ccc31)Sc1ccccc1-2` [Ex 11, N-[[2-[2-(Diethylamino)ethyl]-2H-[1]-benzothiopyrano[4,3,2-cd]indazol-5-yl]methyl]methanesulfonamide], the EC50 in series [2] (setting [7]) is over 230 µM. In addition, in series [3] (setting [8]), the IC50 came out at 0.5 µM. Also, in series [4], the “LTC (long term cures)” value was 0/5 and the “% T/C (tumor growth inhibition)” value was 0%. The MTD in series [5] is 72 mg/kg. For the same molecule, the EC50 in series [6] was found to be 1.8 µM.

With `CCN(CC)CCn1nc2c3c(c(CNS(C)(=O)=O)ccc31)Sc1ccc(OC)cc1-2` [Ex 12], in series [2] (setting [7]), the EC50 was over 210 µM. The IC50 in series [3] (setting [8]) was 30 µM. In series [4], the “LTC (long term cures)” value is 3/5 and the “% T/C (tumor growth inhibition)” value worked out at 0%. Besides, the MTD in series [5] worked out at 208 mg/kg. The midpoint of the response in series [6], the EC50, lay at 1.6 µM.

With `CCN(CC)CCn1nc2c3c(c(CNC(=O)OC)ccc31)Sc1ccccc1-2` [Ex 13, Methyl N-[[2-[(2-diethylamino)ethyl]-2H-[1]-benzothiopyrano(4,3,2-cd)indazol-5-yl]methyl) carbamate], the values for the EC50 in series [2] (setting [7]) and in series [6] were over 240 µM and 2.6 µM, respectively. Also, the IC50 in series [3] (setting [8]) amounted to 0.5 µM. The “LTC (long term cures)” value in series [4] is 3/5. The “% T/C (tumor growth inhibition)” value in series [4] is on record as 0%. For the same molecule, the MTD in series [5] is 78 mg/kg.

With `CCN(CC)CCn1nc2c3c(c(CNC(=O)OC)ccc31)Sc1ccc(OC)cc1-2` [Ex 14], the EC50 in series [2] (setting [7]) is over 220 µM; in series [6], 0.79 µM. The IC50 in series [3] (setting [8]) turned out to be 45 µM. Further, the “% T/C (tumor growth inhibition)” value in series [4] (setting [9]) turned out to be 0%. The “LTC (long term cures)” value in series [4] is given as 4/4. For the same molecule, the MTD in series [5] worked out at 170 mg/kg.

In the case of `CCN(CC)CCn1nc2c3c(c(CNS(C)(=O)=O)ccc31)Sc1ccc(O)cc1-2` [Ex 15], the EC50 turned out to be 0.55 µM in series [2] (setting [10]) and 2.4 µM in series [6]. Further, in series [3] (setting [8]), the IC50 was found to be 0.0044 µM. For the same molecule, the “% T/C (tumor growth inhibition)” value in series [4] (setting [9]) is 0%. Moreover, the “LTC (long term cures)” value in series [4] is recorded as 0/5. In addition, in series [5], the maximal tolerated dose (MTD) amounted to 31 mg/kg.

In the case of `CCN(CC)CCn1nc2c3c(c(CNC(=O)OC)ccc31)Sc1ccc(O)cc1-2` [Ex 16], the EC50 amounted to 0.33 µM in series [2] (setting [10]) and 1.5 µM in series [6]. Moreover, the IC50 in series [3] (setting [8]) worked out at 0.011 µM. In series [4] (setting [9]), the “% T/C (tumor growth inhibition)” value came to 13%. In addition, the “LTC (long term cures)” value in series [4] was 0/5. The MTD in series [5] came out at 18 mg/kg.

`CCN(CC)CCNc1ccc(CN(C)S(C)(=O)=O)c2sc3ccccc3c(=O)c12` [WIN33377, reference compound]: the EC50 in series [2] (setting [10]) is 3 µM. Besides, the IC50 in series [3] (setting [8]) worked out at 0.301 µM. In series [4], the “LTC (long term cures)” value is 3/5 and the “% T/C (tumor growth inhibition)” value is 0%. The maximal tolerated dose (MTD) in series [5] came to 124 mg/kg. The molecule also had an EC50 in series [6] of 18 µM.

On to `COc1cc(NS(C)(=O)=O)ccc1Nc1c2ccccc2nc2ccccc12` [mAMSA, reference compound], for which the IC50 in series [3] (P388, 1 h) came out at 0.151 µM. In series [4], the “LTC (long term cures)” value is given as 0/5 and the “% T/C (tumor growth inhibition)” value was 0%. Besides, the MTD in series [5] came to 48 mg/kg. Besides, in series [6], the EC50 worked out at 11 µM.
